According to patent publication US8999966B2, “Compounds that are ERK inhibitors” (Merck Sharp & Dohme Corp., priority 2010, dated 2015):

target: fully phosphorylated, active Mouse ERK2 protein (Mus musculus, UniProt P63085); experiment: Active ERK2 assay (AERK2), IMAP format; format: biochemical; conditions: activated ERK2, IMAP fluorescence polarization, 30 μM ATP
Description: 14 μl of kinase buffer (10 mM Tris.HCl pH 7.2, 10 mM MgCl2, 0.01% Tween-20, 1 mM DTT) containing 0.4 ng unphosphorylated Mouse ERK2 protein can be added to each well of a black 384-well assay plate. […] DMSO concentration during initial incubation is 6.7%. ERK2 activity can be determined to be insensitive to DMSO concentrations up to 20%. ERK2 can then be activated and it's kinase activity can be measured by the addition of 10 μl kinase buffer with the following components (final concentration per reaction): 2 ng active (phosphorylated) human MEK1 protein and 4 μM (total) ERK2 IMAP substrate peptides (3.9 μM unlabeled IPTTPITTTYFFFK-CONH2 and 100 nM IPTTPITTTYFFFK(5-carboxyfluorescein)-CONH2) and 30 μM ATP. DMSO concentration during ERK activation can be 4%. After one hour, reactions can be terminated by addition of 60 μl IMAP detections beads in binding buffer (Molecular Devices). Binding can be allowed to equilibrate for 30 minutes before reading the plate on an LJL Analyst Fluorescence Polarization plate reader. […] Active compounds can be reconfirmed in an independent assay.
Activated ERK2 activity was also determined in the IMAP assay format using the procedure outlined above. 1 μl of 25× compound was added to 14 μl of kinase buffer containing 0.25 ng fully phosphorylated, active Mouse ERK2 protein. Following a 30 minute incubation, the reactions were initiated by addition of 10 μl of kinase buffer containing 1 μM ERK2 IMAP substrate peptide (0.9 μM unlabeled IPTTPITTTYFFFK-CONH2 and 100 nM IPTTPITTTYFFFK(5-carboxyfluorescein)-CONH2) and 30 μM ATP. Reactions proceeded for 30 minutes before termination by addition of 60 μl IMAP detection beads in binding buffer. Plates were read as above after 30 minute binding equilibration. Active compounds were reconfirmed in an independent assay.

Chain of fully phosphorylated, active Mouse ERK2 protein (P63085 whole entry): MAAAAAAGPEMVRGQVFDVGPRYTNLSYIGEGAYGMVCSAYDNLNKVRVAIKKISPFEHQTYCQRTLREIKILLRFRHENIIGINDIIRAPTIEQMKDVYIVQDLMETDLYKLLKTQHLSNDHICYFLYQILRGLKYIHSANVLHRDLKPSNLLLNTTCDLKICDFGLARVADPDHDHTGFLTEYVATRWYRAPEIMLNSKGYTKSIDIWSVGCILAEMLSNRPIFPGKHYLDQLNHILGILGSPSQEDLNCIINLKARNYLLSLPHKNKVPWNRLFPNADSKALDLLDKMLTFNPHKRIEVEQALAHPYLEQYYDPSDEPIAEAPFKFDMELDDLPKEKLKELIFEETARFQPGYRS

`CC(C)Sc1ccc(-c2n[nH]c3ccc(-c4n[nH]c([C@@H]5CCCN(Cc6c(F)cccc6F)C5)n4)cc23)cc1` [Example 305, 5-[5-[1-[(2,6- DIFLUOROPHENYL)METHYL]- 3(R)-PIPERIDINYL]-1H- 1,2,4-TRIAZOL-3-YL]-3-[4-[(1- METHYLETHYL)THIO]PHEN- YL]-1H-INDAZOLE] and `Fc1cccc(F)c1CN1CCC[C@@H](c2nc(-c3ccc4[nH]nc(-c5ccc(C(F)(F)F)cc5)c4c3)n[nH]2)C1` [Example 301, 5-[5-[1-[(2,6- DIFLUOROPHENYL)METHYL]- 3(R)-PIPERIDINYL]-1H- 1,2,4-TRIAZOL-3-YL]-3-[4- (TRIFLUOROMETHYL)PHEN- YL]-1H-INDAZOLE] cannot be ordered by IC50: at least 0.504 µM for the first, at least 0.504 µM for the second.

`Fc1cccc(F)c1CN1CC=CC[C@@H]1c1nc(-c2ccc3[nH]nc(-c4ccc5c(c4)CCO5)c3c2)n[nH]1` [Example 254, 5-[5-[1-[(2,6- DIFLUOROPHENYL)METHYL]- 1,2,3,6-TETRAHYDRO- 2(R)-PYRIDINYL]-1H-1,2,4- TRIAZOL-3-YL]-3-(2,3- DIHYDRO-5- BENZOFURANYL)-1H- INDAZOLE] and `COc1cccc(F)c1CN1CCCCC1c1nc(-c2ccc3[nH]nc(-c4ccc5c(c4)CCO5)c3c2)n[nH]1` (stereo not shown) [Example 258, 3-(2,3-DIHYDRO-5- BENZOFURANYL)-5-[5-[1-[(2- FLUORO-6- METHOXYPHENYL)METHYL]- 2-PIPERIDINYL]-1H-1,2,4- TRIAZOL-3-YL]-1H- INDAZOLE] cannot be ordered by IC50: at least 0.504 µM for the first, over 1 µM for the second.

`Fc1cccc(F)c1CN1CCCC(c2ccn(-c3ccc4[nH]nc(-c5ccncc5)c4c3)n2)C1` (stereo not shown) [Example 367, 5-[3-[1-[(2,6- DIFLUOROPHENYL)METHYL]- 3-PIPERIDINYL]-1H- PYRAZOL-1-YL]-3-(4- PYRIDINYL)-1H-INDAZOLE] and `Cc1n[nH]c2ccc(-c3n[nH]c4ccc(-n5cc([C@@H]6CCCN(Cc7c(F)cccc7F)C6)nn5)cc34)cc12` [Example 247, 5-[4-[1-[(2,6- DIFLUOROPHENYL)METHYL]- 3(R)-PIPERIDINYL]-1H- 1,2,3-TRIAZOL-1-YL]-3′- METHYL-3,5′-BI-1H- INDAZOLE] cannot be ordered by IC50: over 1 µM for the first, at least 0.504 µM for the second.

`c1cc(CN2CCC[C@@H](c3nnc(-c4ccc5[nH]nc(-c6ccc7occc7c6)c5c4)o3)C2)ncn1` [Example 351, 3-(5-BENZOFURANYL)-5-[5- [1-(4- PYRIMIDINYLMETHYL)- 3(R)-PIPERIDINYL]-1,3,4- OXADIAZOL-2-YL]-1H- INDAZOLE] and `Clc1cc(-c2n[nH]c3ccc(-c4nnc([C@@H]5CCCN(Cc6ccncn6)C5)o4)cc23)ccn1` [Example 360, 3-(2-CHLORO-4-PYRIDINYL)- 5-[5-[1-(4- PYRIMIDINYLMETHYL)- 3(R)-PIPERIDINYL]-1,3,4- OXADIAZOL-2-YL]-1H- INDAZOLE] cannot be ordered by IC50: over 1 µM for the first, at least 0.504 µM for the second.

`Clc1cc(-c2n[nH]c3ccc(-c4nnc([C@@H]5CCCN(CC6CCCCC6)C5)o4)cc23)ccn1` [Example 362, 3-(2-CHLORO-4-PYRIDINYL)- 5-[5-[1- (CYCLOHEXYLMETHYL)- 3(R)-PIPERIDINYL]-1,3,4- OXADIAZOL-2-YL]-1H- INDAZOLE] and `c1cc2cc(-c3n[nH]c4ccc(-c5nnc([C@@H]6CCCN(CC7CCCCC7)C6)o5)cc34)ccc2o1` [Example 352, 3-(5-BENZOFURANYL)-5-[5- [1-(CYCLOHEXYLMETHYL)- 3(R)-PIPERIDINYL]-1,3,4- OXADIAZOL-2-YL]-1H- INDAZOLE] cannot be ordered by IC50: at least 0.504 µM for the first, over 1 µM for the second.

`Cn1cc2cc(-c3n[nH]c4ccc(-c5nnc([C@@H]6CCCN(Cc7cc8ccccc8n7C)C6)o5)cc34)ccc2n1` [Example 321, 3-(2-METHYL-2H-INDAZOL- 5-YL)-5-[5-[1-[(1-METHYL- 1H-INDOL-2-YL)METHYL]- 3(R)-PIPERIDINYL]-1,3,4- OXADIAZOL-2-YL]-1H- INDAZOLE] and `Clc1cc(-c2n[nH]c3ccc(-c4nnc([C@@H]5CCCN(Cc6cc7ccccc7o6)C5)o4)cc23)ccn1` [Example 357, 5-[5-[1-(2- BENZOFURANYLMETHYL)- 3(R)-PIPERIDINYL]-1,3,4- OXADIAZOL-2-YL]-3-(2- CHLORO-4-PYRIDINYL)-1H- INDAZOLE] cannot be ordered by IC50: over 1 µM for the first, at least 0.504 µM for the second.

`CCn1cc(-c2n[nH]c3ccc(-c4nnc([C@@H]5CCCN(Cc6cc(F)c(Cl)cc6Cl)C5)o4)cc23)cn1` [Example 345, 5-[5-[1-[(2,4-DICHLORO-5- FLUOROPHENYL)METHYL]- 3(R)-PIPERIDINYL]-1,3,4- OXADIAZOL-2-YL]-3-(1- ETHYL-1H-PYRAZOL-4-YL)- 1H-INDAZOLE] and `CCn1cc(-c2n[nH]c3ccc(-c4nnc([C@@H]5CCCN(Cc6cn(C)c7ccccc67)C5)o4)cc23)cn1` [Example 341, 3-(1-ETHYL-1H-PYRAZOL-4- YL)-5-[5-[1-[(1-METHYL-1H- INDOL-3-YL)METHYL]-3(R)- PIPERIDINYL]-1,3,4- OXADIAZOL-2-YL]-1H- INDAZOLE] cannot be ordered by IC50: over 1 µM for the first, over 1 µM for the second.

`COc1cccc(F)c1CN1CCCCC1c1nc(-c2ccc3[nH]nc(-c4ccc(OC(C)C)cc4)c3c2)n[nH]1` (stereo not shown) [Example 259, 5-[5-[1-[(2-FLUORO-6- METHOXYPHENYL)METHYL]- 2-PIPERIDINYL]-1H-1,2,4- TRIAZOL-3-YL]-3-[4-(1- METHYLETHOXY)PHENYL]- 1H-INDAZOLE] and `CC(C)Oc1ccc(-c2n[nH]c3ccc(-c4n[nH]c([C@@H]5CCCN(Cc6cccs6)C5)n4)cc23)cc1` [Example 304, 3-[4-(1- METHYLETHOXY)PHENYL]- 5-[5-[1-(2- THIENYLMETHYL)-3(R)- PIPERIDINYL]-1H-1,2,4- TRIAZOL-3-YL]-1H- INDAZOLE] cannot be ordered by IC50: over 1 µM for the first, at least 0.504 µM for the second.

First: Fc1ccccc1CN1CCOC(c2cn(-c3ccc4[nH]nc(-c5ccncc5)c4c3)nn2)C1 (stereo not shown) [Example 249, 5-[4-[4-[(2- FLUOROPHENYL)METHYL]- 2-MORPHOLINYL]-1H-1,2,3- TRIAZOL-1-YL]-3-(4- PYRIDINYL)-1H-INDAZOLE]
Second: Clc1cc(-c2n[nH]c3ccc(-c4nnc([C@@H]5CCCN(Cc6cc7ccccc7s6)C5)o4)cc23)ccn1 [Example 359, 5-[5-[1-(BENZO[b]THIEN-2- YLMETHYL)-3(R)- PIPERIDINYL]-1,3,4- OXADIAZOL-2-YL]-3-(2- CHLORO-4-PYRIDINYL)-1H- INDAZOLE]
The IC50 of the first is lower: 0.0003 to 0.0104 µM for the first, at least 0.504 µM for the second.

`COc1cccc(F)c1CN1CCC[C@@H](c2nnc(-c3ccc4[nH]nc(-c5ccc6occc6c5)c4c3)o2)C1` [Example 349, 3-(5-BENZOFURANYL)-5-[5- [1-[(2-FLUORO-6- METHOXYPHENYL)METHYL]- 3(R)-PIPERIDINYL]-1,3,4- OXADIAZOL-2-YL]-1H- INDAZOLE] and `Fc1cccc(F)c1CN1CCC[C@@H](c2nnc(-c3ccc4[nH]nc(-c5ccc6occc6c5)c4c3)o2)C1` [Example 348, 3-(5-BENZOFURANYL)-5-[5- [1-[(2,6- DIFLUOROPHENYL)METHYL]- 3(R)-PIPERIDINYL]-1,3,4- OXADIAZOL-2-YL]-1H- INDAZOLE] cannot be ordered by IC50: at least 0.504 µM for the first, over 1 µM for the second.

`CC(=O)Nc1cc(-c2n[nH]c3ccc(-c4nnc([C@@H]5CCCN(Cc6ccc7nccnc7c6)C5)o4)cc23)ccc1O` [Example 316, N-[2-HYDROXY-5-[5-[5-[1-(6- QUINOXALINYLMETHYL)- 3(R)-PIPERIDINYL]-1,3,4- OXADIAZOL-2-YL]-1H- INDAZOL-3- YL]PHENYL]ACETAMIDE] and `c1ccc(CN2CCCC(c3nnc(-c4ccc5[nH]nc(-c6ccc7c(c6)CCO7)c5c4)o3)C2)cc1` (stereo not shown) [Example 307, 3-(2,3-DIHYDRO-5- BENZOFURANYL)-5-[5-[1- (PHENYLMETHYL)-3- (PIPERIDINYL]-1,3,4- OXADIAZOL-2-YL]-1H- INDAZOLE] cannot be ordered by IC50: at least 0.504 µM for the first, over 1 µM for the second.
